Measurements as given in article PMC7026418, “The kinase polypharmacology landscape of clinical PARP inhibitors” (Scientific Reports, 2020).
Read-outs that look alike come from different tables or passages of the source.

Tests used:
Assay in all cases: biochemical
Set-up in all cases: DiscoveRx KINOMEscan active site-directed competition binding; percent of control kinase bound to immobilised ligand
PIK4CB = target: T1, PIK4CB (Homo sapiens, UniProt Q9UBF8)
T1 construct: gene PI4KB

FER = FER (Homo sapiens, UniProt P16591)
Chain of FER (P16591 whole entry): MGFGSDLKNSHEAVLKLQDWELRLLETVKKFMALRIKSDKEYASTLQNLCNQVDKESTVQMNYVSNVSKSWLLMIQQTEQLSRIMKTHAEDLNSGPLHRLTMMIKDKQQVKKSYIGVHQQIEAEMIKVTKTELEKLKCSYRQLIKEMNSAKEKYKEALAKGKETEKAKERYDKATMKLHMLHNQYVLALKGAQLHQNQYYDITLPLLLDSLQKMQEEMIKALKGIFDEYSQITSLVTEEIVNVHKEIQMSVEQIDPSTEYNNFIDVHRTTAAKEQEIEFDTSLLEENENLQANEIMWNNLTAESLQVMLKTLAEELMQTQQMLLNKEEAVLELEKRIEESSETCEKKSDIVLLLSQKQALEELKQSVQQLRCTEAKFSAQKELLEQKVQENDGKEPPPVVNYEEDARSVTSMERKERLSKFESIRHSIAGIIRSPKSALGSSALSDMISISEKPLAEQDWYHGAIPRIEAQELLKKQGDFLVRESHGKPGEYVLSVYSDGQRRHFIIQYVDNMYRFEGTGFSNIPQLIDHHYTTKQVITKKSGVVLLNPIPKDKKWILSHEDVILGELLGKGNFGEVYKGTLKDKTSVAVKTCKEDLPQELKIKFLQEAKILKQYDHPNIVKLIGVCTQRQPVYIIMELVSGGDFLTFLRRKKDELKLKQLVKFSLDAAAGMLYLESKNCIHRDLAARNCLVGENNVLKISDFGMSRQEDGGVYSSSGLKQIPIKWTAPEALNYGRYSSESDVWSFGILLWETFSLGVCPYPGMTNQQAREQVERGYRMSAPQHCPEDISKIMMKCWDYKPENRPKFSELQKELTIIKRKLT

FLT3(ITD,D835V) = target: T2, FLT3(ITD,D835V) (Homo sapiens, UniProt P36888, D835V/ITD)
T2 sequence (P36888 564-993 D835V): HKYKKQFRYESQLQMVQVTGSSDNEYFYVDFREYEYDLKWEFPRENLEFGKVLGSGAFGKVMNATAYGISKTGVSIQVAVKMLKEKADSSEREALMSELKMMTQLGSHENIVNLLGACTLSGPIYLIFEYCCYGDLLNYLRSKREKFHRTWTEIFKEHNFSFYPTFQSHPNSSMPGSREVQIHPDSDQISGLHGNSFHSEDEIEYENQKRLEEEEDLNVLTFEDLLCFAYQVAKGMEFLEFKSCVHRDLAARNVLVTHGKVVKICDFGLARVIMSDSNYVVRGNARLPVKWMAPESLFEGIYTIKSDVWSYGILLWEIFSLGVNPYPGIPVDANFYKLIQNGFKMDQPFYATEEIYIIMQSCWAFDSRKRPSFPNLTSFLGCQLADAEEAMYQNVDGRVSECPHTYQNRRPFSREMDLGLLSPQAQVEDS

NLK = target: T3, NLK (Homo sapiens, UniProt Q9UBE8)
T3 sequence (Q9UBE8 1-527): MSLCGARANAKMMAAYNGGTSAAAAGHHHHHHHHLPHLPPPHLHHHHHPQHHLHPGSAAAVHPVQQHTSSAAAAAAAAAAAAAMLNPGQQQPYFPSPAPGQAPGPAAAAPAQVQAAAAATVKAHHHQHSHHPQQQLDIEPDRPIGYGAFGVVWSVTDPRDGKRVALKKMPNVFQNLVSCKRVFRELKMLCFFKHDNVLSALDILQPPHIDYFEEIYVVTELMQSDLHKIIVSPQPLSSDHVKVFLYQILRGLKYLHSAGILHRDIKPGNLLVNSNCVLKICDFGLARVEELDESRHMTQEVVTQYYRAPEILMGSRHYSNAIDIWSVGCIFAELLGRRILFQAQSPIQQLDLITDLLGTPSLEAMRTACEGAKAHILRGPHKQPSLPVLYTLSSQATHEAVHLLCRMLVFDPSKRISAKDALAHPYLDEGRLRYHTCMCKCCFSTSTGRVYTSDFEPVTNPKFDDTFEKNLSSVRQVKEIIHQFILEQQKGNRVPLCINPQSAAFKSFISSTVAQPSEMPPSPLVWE

CDC2L2 = target: T4, CDC2L2 (Homo sapiens, UniProt Q9UQ88)
T4 construct: gene CDK11A
T4 sequence (Q9UQ88 1-783): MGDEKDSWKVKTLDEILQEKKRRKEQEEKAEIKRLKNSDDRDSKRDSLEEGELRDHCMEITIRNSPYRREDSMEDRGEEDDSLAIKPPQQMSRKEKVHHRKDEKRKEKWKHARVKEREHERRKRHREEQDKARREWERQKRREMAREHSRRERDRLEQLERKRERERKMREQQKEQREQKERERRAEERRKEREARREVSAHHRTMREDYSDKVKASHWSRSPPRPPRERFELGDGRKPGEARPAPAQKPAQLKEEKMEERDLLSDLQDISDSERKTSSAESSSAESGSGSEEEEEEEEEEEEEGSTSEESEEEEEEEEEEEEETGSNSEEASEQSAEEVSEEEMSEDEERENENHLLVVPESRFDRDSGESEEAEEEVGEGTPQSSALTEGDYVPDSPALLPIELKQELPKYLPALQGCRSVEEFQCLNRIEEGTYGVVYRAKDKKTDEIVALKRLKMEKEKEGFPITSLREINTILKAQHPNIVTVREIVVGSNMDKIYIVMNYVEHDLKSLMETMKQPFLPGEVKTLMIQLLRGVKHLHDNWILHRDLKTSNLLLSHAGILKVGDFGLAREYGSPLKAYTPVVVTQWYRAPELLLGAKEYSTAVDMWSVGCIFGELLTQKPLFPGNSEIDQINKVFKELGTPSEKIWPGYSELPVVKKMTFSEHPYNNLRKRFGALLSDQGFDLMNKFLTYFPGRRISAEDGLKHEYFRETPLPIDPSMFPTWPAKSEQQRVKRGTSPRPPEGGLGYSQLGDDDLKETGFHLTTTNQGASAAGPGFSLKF

NEK3 = target: T5, NEK3 (Homo sapiens, UniProt P51956)
T5 sequence (P51956 1-506): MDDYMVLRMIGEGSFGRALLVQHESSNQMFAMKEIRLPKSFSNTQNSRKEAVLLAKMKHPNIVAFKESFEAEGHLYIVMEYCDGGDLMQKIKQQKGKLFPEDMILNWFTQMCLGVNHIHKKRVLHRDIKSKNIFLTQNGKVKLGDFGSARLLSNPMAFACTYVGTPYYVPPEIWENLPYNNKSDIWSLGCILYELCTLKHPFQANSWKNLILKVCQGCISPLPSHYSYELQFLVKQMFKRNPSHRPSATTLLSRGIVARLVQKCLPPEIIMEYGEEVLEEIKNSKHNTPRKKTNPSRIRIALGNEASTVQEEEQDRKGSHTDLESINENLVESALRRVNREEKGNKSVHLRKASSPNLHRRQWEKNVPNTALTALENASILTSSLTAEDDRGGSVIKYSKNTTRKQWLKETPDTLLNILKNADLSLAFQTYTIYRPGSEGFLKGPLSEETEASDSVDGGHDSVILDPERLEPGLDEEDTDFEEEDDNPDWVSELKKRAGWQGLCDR

TIE1 = TIE1 (Homo sapiens, UniProt P35590)
Chain of TIE1 (P35590 whole entry): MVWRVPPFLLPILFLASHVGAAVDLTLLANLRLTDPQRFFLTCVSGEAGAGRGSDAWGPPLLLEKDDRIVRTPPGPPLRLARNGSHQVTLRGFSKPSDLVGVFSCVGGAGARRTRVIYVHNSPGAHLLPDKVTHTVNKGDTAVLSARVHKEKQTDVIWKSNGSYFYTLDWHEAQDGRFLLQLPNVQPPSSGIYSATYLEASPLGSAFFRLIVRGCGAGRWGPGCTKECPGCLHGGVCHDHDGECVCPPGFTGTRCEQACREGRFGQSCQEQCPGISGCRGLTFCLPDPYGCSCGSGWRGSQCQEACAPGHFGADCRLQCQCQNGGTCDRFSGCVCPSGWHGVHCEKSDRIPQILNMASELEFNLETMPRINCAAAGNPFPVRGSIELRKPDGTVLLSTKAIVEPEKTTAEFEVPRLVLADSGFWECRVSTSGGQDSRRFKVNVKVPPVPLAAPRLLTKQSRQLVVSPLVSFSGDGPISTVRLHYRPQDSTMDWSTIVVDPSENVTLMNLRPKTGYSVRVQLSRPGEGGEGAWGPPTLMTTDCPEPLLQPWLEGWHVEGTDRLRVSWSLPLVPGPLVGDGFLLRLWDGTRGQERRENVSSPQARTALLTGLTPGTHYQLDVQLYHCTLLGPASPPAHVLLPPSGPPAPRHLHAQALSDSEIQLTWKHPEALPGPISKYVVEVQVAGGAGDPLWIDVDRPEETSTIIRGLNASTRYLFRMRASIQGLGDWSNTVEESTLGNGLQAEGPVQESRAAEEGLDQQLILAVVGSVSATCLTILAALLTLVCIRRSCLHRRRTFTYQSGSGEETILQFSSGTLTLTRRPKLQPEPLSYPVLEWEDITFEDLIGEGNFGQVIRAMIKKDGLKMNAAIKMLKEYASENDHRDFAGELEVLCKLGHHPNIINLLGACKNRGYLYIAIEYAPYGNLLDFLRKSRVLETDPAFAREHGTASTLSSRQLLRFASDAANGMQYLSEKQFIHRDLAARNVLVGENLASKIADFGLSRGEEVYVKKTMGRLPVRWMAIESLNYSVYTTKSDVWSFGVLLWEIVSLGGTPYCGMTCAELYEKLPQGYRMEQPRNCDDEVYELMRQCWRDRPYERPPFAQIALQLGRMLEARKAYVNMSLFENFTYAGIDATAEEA

OSR1 = target: T6, OSR1 (Homo sapiens, UniProt O95747)
T6 construct: gene OXSR1
T6 sequence (O95747 whole entry): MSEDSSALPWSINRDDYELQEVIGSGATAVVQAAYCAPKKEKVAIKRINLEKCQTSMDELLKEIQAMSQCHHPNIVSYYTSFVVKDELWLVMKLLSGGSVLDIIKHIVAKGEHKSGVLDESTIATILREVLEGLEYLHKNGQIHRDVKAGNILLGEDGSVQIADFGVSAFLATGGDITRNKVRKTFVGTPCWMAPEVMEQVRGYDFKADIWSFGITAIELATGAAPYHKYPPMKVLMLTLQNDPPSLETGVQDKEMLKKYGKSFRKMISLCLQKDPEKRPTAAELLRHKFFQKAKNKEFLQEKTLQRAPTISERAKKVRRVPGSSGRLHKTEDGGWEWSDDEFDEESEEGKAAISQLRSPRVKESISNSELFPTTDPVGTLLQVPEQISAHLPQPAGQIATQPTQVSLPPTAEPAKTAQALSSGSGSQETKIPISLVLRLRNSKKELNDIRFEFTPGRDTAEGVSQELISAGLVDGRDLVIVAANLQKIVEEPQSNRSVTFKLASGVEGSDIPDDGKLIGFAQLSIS

[1] = read-out: Talazoparib (BMN 673) / %Ctrl @ 10000nM
[2] = read-out: Olaparib / %Ctrl @ 10000nM
[3] = read-out: Rucaparib / %Ctrl @ 10000nM, binding competition, % of control
[4] = read-out: Niraparib (MK-4827) / %Ctrl @ 10000nM

T1 sequence (Q9UBF8 whole entry): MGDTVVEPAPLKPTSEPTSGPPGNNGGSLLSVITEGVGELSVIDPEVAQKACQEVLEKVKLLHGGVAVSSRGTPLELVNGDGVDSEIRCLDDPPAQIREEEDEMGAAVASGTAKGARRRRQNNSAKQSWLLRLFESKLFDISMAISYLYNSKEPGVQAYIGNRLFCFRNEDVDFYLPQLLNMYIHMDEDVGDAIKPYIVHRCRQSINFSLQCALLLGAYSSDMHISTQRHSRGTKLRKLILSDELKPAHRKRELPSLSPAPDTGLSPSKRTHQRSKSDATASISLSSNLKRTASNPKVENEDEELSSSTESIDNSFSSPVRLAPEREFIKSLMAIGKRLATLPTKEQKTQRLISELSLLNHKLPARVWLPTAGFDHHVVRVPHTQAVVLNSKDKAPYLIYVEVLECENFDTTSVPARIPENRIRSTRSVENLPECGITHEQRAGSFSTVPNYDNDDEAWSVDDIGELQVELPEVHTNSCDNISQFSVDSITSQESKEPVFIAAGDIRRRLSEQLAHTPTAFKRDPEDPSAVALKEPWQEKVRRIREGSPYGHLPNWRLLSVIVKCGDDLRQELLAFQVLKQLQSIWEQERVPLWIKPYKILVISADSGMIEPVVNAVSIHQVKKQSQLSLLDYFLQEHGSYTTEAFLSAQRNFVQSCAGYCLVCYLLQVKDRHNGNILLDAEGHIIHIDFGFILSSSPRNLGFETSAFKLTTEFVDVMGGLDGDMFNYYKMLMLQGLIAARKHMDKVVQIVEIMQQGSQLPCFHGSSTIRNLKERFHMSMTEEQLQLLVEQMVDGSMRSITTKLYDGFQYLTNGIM

Cn1ncnc1[C@H]1c2n[nH]c(=O)c3cc(F)cc(c23)N[C@@H]1c1ccc(F)cc1 [Talazoparib]
percent of control binding at 10 µM (PIK4CB; [1]): 81% | percent of control binding at 10 µM (FER; [1]): 94% | percent of control binding at 10 µM (FLT3(ITD,D835V); [1]): 100% | percent of control binding at 10 µM (NLK; [1]): 100% | percent of control binding at 10 µM (CDC2L2; [1]): 100% | percent of control binding at 10 µM (NEK3; [1]): 66% | percent of control binding at 10 µM (TIE1; [1]): 100% | percent of control binding at 10 µM (OSR1; [1]): 90%

O=C(c1cc(Cc2n[nH]c(=O)c3ccccc23)ccc1F)N1CCN(C(=O)C2CC2)CC1 [Olaparib]
percent of control binding at 10 µM (PIK4CB; [2]): 94% | percent of control binding at 10 µM (FER; [2]): 100% | percent of control binding at 10 µM (FLT3(ITD,D835V); [2]): 100% | percent of control binding at 10 µM (NLK; [2]): 85% | percent of control binding at 10 µM (CDC2L2; [2]): 100% | percent of control binding at 10 µM (NEK3; [2]): 81% | percent of control binding at 10 µM (TIE1; [2]): 96% | percent of control binding at 10 µM (OSR1; [2]): 88%

CNCc1ccc(-c2[nH]c3cc(F)cc4c3c2CCNC4=O)cc1 [Rucaparib]
percent of control binding at 10 µM (PIK4CB; [3]): 78% | percent of control binding at 10 µM (FER; [3]): 95% | Rucaparib / %Ctrl @ 10000nM (FLT3(ITD,D835V); binding competition, % of control): 8.1% | percent of control binding at 10 µM (NLK; [3]): 78% | percent of control binding at 10 µM (CDC2L2; [3]): 88% | percent of control binding at 10 µM (NEK3; [3]): 86% | percent of control binding at 10 µM (TIE1; [3]): 92% | percent of control binding at 10 µM (OSR1; [3]): 71%

NC(=O)c1cccc2cn(-c3ccc([C@@H]4CCCNC4)cc3)nc12 [Niraparib]
percent of control binding at 10 µM (PIK4CB; [4]): 94% | percent of control binding at 10 µM (FER; [4]): 93% | percent of control binding at 10 µM (FLT3(ITD,D835V); [4]): 36% | percent of control binding at 10 µM (NLK; [4]): 100% | percent of control binding at 10 µM (CDC2L2; [4]): 83% | percent of control binding at 10 µM (NEK3; [4]): 88% | percent of control binding at 10 µM (TIE1; [4]): 87% | percent of control binding at 10 µM (OSR1; [4]): 98%
